Reference: ChEMBL document CHEMBL1201862, “PubChem BioAssay data set” (2004)
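A five-concentration, 48-hour dose response in 96-well plates underlies each endpoint, interpolated linearly between surrounding concentrations. Here, GI50 denotes the concentration required for 50% inhibition of growth.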 The source made the active and inactive calls. No stated cut-off is given here; in the data, active = GI50 up to about 1.1 µM and inactive = higher.

Experiments:
Test in all cases: NCI-60 cell line screen, 48 h
HCT-15 = system: HCT-15
LOX IMVI = system: LOX IMVI
SNB-19 = system: SNB-19
NCI-H522 = system: NCI-H522
NCI-H23 = system: NCI-H23
NCI-H226 = system: NCI-H226
CAKI-1 = system: CAKI-1
NCI/ADR-RES = system: NCI/ADR-RES
U-251 = system: U-251
RPMI-8226 = system: RPMI-8226
RXF 393 = system: RXF 393
M14 = system: M14
SN12C = system: SN12C
HOP-92 = system: HOP-92
SF-539 = system: SF-539
SF-295 = system: SF-295
SNB-75 = system: SNB-75
786-0 = system: 786-0
MOLT-4 = system: MOLT-4
ACHN = system: ACHN
SK-MEL-5 = system: SK-MEL-5
UO-31 = system: UO-31
HCT-116 = system: HCT-116
MDA-MB-435 = system: MDA-MB-435
UACC-257 = system: UACC-257
MDA-MB-231 = system: MDA-MB-231
Malme-3M = system: Malme-3M
EKVX = system: EKVX
A498 = system: A498
HOP-62 = system: HOP-62
OVCAR-4 = system: OVCAR-4
T47D = system: T47D
BT-549 = system: BT-549
NCI-H460 = system: NCI-H460
HT-29 = system: HT-29
KM12 = system: KM12
COLO 205 = system: COLO 205
A549 = system: A549
OVCAR-3 = system: OVCAR-3
TK-10 = system: TK-10
SF-268 = system: SF-268
SW-620 = system: SW-620
OVCAR-8 = system: OVCAR-8
SK-OV-3 = system: SK-OV-3
IGROV-1 = system: IGROV-1
K562 = system: K562
DU-145 = system: DU-145
SK-MEL-28 = system: SK-MEL-28
OVCAR-5 = system: OVCAR-5
HL-60 = system: HL-60
CCRF-CEM = system: CCRF-CEM
HCC 2998 = system: HCC 2998
PC-3 = system: PC-3
Hs-578T = system: Hs-578T
MCF7 = system: MCF7
UACC-62 = system: UACC-62
SK-MEL-2 = system: SK-MEL-2
SR = system: SR

For N#CC(C(=O)c1cccnc1Cl)c1nc2cc(C(F)(F)F)ccc2s1 (centres undefined), the GI50 (HCT-15) was 35.3 µM, the GI50 (LOX IMVI) was 37.3 µM (inactive) and the GI50 (SNB-19) was 77.3 µM (inactive). For the same molecule, the GI50 (NCI-H522) was 19.8 µM (inactive), the GI50 (NCI-H23) was 30.8 µM (inactive) and the GI50 (NCI-H226) was 44.2 µM (inactive). The GI50 (CAKI-1) was > 100 µM (inactive), the GI50 (NCI/ADR-RES) was 65.5 µM (inactive) and the GI50 (U-251) was 78.3 µM (inactive). The GI50 (RPMI-8226) was 41.6 µM (inactive), the GI50 (RXF 393) was 42.3 µM (inactive) and the GI50 (M14) was 50.8 µM (inactive). For the same molecule, the GI50 (SN12C) was 27.7 µM (inactive), the GI50 (HOP-92) was 12.4 µM (inactive) and the GI50 (SF-539) was 99.3 µM (inactive). The GI50 (SF-295) was 27.7 µM (inactive), the GI50 (SNB-75) was 25.3 µM (inactive) and the GI50 (786-0) was 88.9 µM (inactive). For the same molecule, the GI50 (MOLT-4) was > 100 µM (inactive), the GI50 (ACHN) was > 100 µM (inactive) and the GI50 (SK-MEL-5) was > 100 µM (inactive). The GI50 (UO-31) was 39.8 µM (inactive), the GI50 (HCT-116) was 26.1 µM (inactive) and the GI50 (MDA-MB-435) was 47.2 µM (inactive). For the same molecule, the GI50 (UACC-257) was 75 µM (inactive), the GI50 (MDA-MB-231) was 54 µM (inactive) and the GI50 (Malme-3M) was 37.1 µM (inactive). For the same molecule, the GI50 (EKVX) was 64.9 µM (inactive), the GI50 (A498) was 26.7 µM (inactive) and the GI50 (HOP-62) was 34.8 µM (inactive). For the same molecule, the GI50 (OVCAR-4) was 67 µM (inactive), the GI50 (T47D) was > 100 µM (inactive) and the GI50 (BT-549) was 37.4 µM (inactive). For the same molecule, the GI50 (NCI-H460) was 59.6 µM (inactive), the GI50 (HT-29) was 28.3 µM (inactive) and the GI50 (KM12) was 58.9 µM (inactive). For the same molecule, the GI50 (COLO 205) was 44.2 µM (inactive), the GI50 (A549) was > 100 µM (inactive) and the GI50 (OVCAR-3) was > 100 µM (inactive). The GI50 (TK-10) was 55.5 µM (inactive), the GI50 (SF-268) was 64.9 µM (inactive) and the GI50 (SW-620) was 47.1 µM (inactive). The GI50 (OVCAR-8) was > 100 µM (inactive), the GI50 (SK-OV-3) was 62.7 µM (inactive) and the GI50 (IGROV-1) was > 100 µM (inactive). For the same molecule, the GI50 (K562) was 60.5 µM (inactive), the GI50 (DU-145) was > 100 µM (inactive) and the GI50 (SK-MEL-28) was 56.8 µM (inactive). The GI50 (OVCAR-5) was 33.9 µM (inactive).

With NC(=O)c1c2c(n3ccccc13)C(=O)c1ccccc1C2=O the GI50 (HCT-15) was over 100 µM, the GI50 (LOX IMVI) was > 100 µM (inactive) and the GI50 (SNB-19) was 74 µM (inactive). The GI50 (NCI-H23) was 11.9 µM (inactive), the GI50 (HL-60) was > 100 µM (inactive) and the GI50 (CCRF-CEM) was > 100 µM (inactive). The GI50 (NCI-H226) was 52.4 µM (inactive), the GI50 (HCC 2998) was > 100 µM (inactive) and the GI50 (CAKI-1) was > 100 µM (inactive). The GI50 (PC-3) was > 100 µM (inactive), the GI50 (NCI/ADR-RES) was > 100 µM (inactive) and the GI50 (U-251) was 39.6 µM (inactive). For the same molecule, the GI50 (Hs-578T) was 96.6 µM (inactive), the GI50 (RPMI-8226) was > 100 µM (inactive) and the GI50 (RXF 393) was 37 µM (inactive). The GI50 (M14) was 18.1 µM (inactive), the GI50 (HOP-92) was 31 µM (inactive) and the GI50 (SF-539) was 39.6 µM (inactive). For the same molecule, the GI50 (SF-295) was 29 µM (inactive), the GI50 (SNB-75) was 37.6 µM (inactive) and the GI50 (786-0) was 71.8 µM (inactive). The GI50 (MOLT-4) was > 100 µM (inactive), the GI50 (ACHN) was > 100 µM (inactive) and the GI50 (SK-MEL-5) was 16.1 µM (inactive). The GI50 (UO-31) was > 100 µM (inactive), the GI50 (HCT-116) was > 100 µM (inactive) and the GI50 (MDA-MB-435) was 20.2 µM (inactive). For the same molecule, the GI50 (UACC-257) was 32.1 µM (inactive), the GI50 (MDA-MB-231) was 38.5 µM (inactive) and the GI50 (MCF7) was > 100 µM (inactive). The GI50 (UACC-62) was 68.2 µM (inactive), the GI50 (EKVX) was > 100 µM (inactive) and the GI50 (A498) was > 100 µM (inactive). For the same molecule, the GI50 (HOP-62) was 30.2 µM (inactive), the GI50 (OVCAR-4) was > 100 µM (inactive) and the GI50 (T47D) was > 100 µM (inactive). For the same molecule, the GI50 (SK-MEL-2) was 32.3 µM (inactive), the GI50 (BT-549) was > 100 µM (inactive) and the GI50 (SR) was > 100 µM (inactive). For the same molecule, the GI50 (NCI-H460) was 19.4 µM (inactive), the GI50 (HT-29) was 32.2 µM (inactive) and the GI50 (KM12) was > 100 µM (inactive). The GI50 (COLO 205) was 39.6 µM (inactive), the GI50 (TK-10) was > 100 µM (inactive) and the GI50 (SF-268) was > 100 µM (inactive). The GI50 (SW-620) was > 100 µM (inactive), the GI50 (OVCAR-8) was > 100 µM (inactive) and the GI50 (SK-OV-3) was > 100 µM (inactive). The GI50 (IGROV-1) was 42.7 µM (inactive), the GI50 (K562) was > 100 µM (inactive) and the GI50 (DU-145) was > 100 µM (inactive). The GI50 (SK-MEL-28) was > 100 µM (inactive).

For Cc1n[nH]c(=O)n1/N=C/c1ccc([N+](=O)[O-])o1, the GI50 (HCT-15) was 7.01 µM, the GI50 (LOX IMVI) was 8.85 µM (inactive) and the GI50 (SNB-19) was 31 µM (inactive). The GI50 (NCI-H522) was 3.13 µM (inactive), the GI50 (NCI-H23) was 13.8 µM (inactive) and the GI50 (CCRF-CEM) was 13.5 µM (inactive). The GI50 (NCI-H226) was 15.6 µM (inactive), the GI50 (HCC 2998) was 20.6 µM (inactive) and the GI50 (CAKI-1) was 7.8 µM (inactive). For the same molecule, the GI50 (PC-3) was 29 µM (inactive), the GI50 (NCI/ADR-RES) was 17.4 µM (inactive) and the GI50 (U-251) was 21.7 µM (inactive). The GI50 (RPMI-8226) was 15.7 µM (inactive), the GI50 (RXF 393) was 0.881 µM (active) and the GI50 (M14) was 11.6 µM (inactive). The GI50 (SN12C) was 5.64 µM (inactive), the GI50 (SF-539) was 19.1 µM (inactive) and the GI50 (SF-295) was 25.8 µM (inactive). For the same molecule, the GI50 (SNB-75) was 32.4 µM (inactive), the GI50 (786-0) was 15.1 µM (inactive) and the GI50 (MOLT-4) was 5.7 µM (inactive). The GI50 (ACHN) was 10.9 µM (inactive), the GI50 (SK-MEL-5) was 3.56 µM (inactive) and the GI50 (UO-31) was 14.5 µM (inactive). The GI50 (HCT-116) was 8.39 µM (inactive), the GI50 (MDA-MB-435) was 5.3 µM (inactive) and the GI50 (UACC-257) was 13 µM (inactive). The GI50 (MDA-MB-231) was 18.2 µM (inactive), the GI50 (MCF7) was 18 µM (inactive) and the GI50 (Malme-3M) was 4.65 µM (inactive). The GI50 (UACC-62) was 13.1 µM (inactive), the GI50 (EKVX) was 17.5 µM (inactive) and the GI50 (A498) was 22.1 µM (inactive). The GI50 (HOP-62) was 26.9 µM (inactive), the GI50 (OVCAR-4) was 16.7 µM (inactive) and the GI50 (T47D) was 19.5 µM (inactive). The GI50 (SK-MEL-2) was 14.2 µM (inactive), the GI50 (BT-549) was 21.8 µM (inactive) and the GI50 (NCI-H460) was 14.3 µM (inactive). For the same molecule, the GI50 (HT-29) was 12.9 µM (inactive), the GI50 (KM12) was 13.7 µM (inactive) and the GI50 (COLO 205) was 8.59 µM (inactive). The GI50 (A549) was 16.7 µM (inactive), the GI50 (OVCAR-3) was 5.58 µM (inactive) and the GI50 (TK-10) was 18.1 µM (inactive). The GI50 (SF-268) was 17.4 µM (inactive), the GI50 (SW-620) was 13.9 µM (inactive) and the GI50 (OVCAR-8) was 15.2 µM (inactive). For the same molecule, the GI50 (SK-OV-3) was 28.2 µM (inactive), the GI50 (K562) was 8.02 µM (inactive) and the GI50 (DU-145) was 10.4 µM (inactive). The GI50 (SK-MEL-28) was 11.2 µM (inactive) and the GI50 (OVCAR-5) was 21.4 µM (inactive).
